This note sets out measurements from US8471005B2 (Cephalon, Inc., priority 2008, dated 2013).

For assay [1], the target named is T1, JAK2 (Homo sapiens, UniProt O60674).
T1 construct: host or cells: baculovirus expression system
The assay is described as follows: Recombinant Human JAK2 Kinase Assay (TRF). The assay is classed as biochemical. As to conditions: read-out: JAK2 Potency. An outline of the steps:
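Europium-labelled PY100 antibody reported tyrosine phosphorylation of a Neutravidin-captured biotinyl 15-mer peptide by JAK2 (baculovirus-expressed, 15 ng/ml). Conditions: 20 mM HEPES pH 7.2, 0.2 μM ATP, 1 mM MnCl2, 0.1% BSA, DMSO 2.5% final, 20 min at room temperature.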

Assay [2] concerns the target T2, ALK (Homo sapiens, UniProt Q9UM73).
T2 construct: host or cells: baculovirus expression system
The assay is described as follows: ALK Kinase Assay (ELISA/TRF, PLC-γ substrate). Type of assay: biochemical. As to conditions: read-out: ALK Potency. A digest of the protocol:
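PLC-γ substrate coated at 10 μg/mL in TBS; reaction started with 30 ng/ml ALK, run 15 min at 37° C. Phosphoproduct detected by TRF with Eu-N1-labeled PT66 anti-phosphotyrosine antibody. IC50 from sigmoidal variable-slope fit of percent inhibition versus log concentration.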
(An ELISA detects its analyte on a solid surface through an enzyme-linked reagent.)

The mark [3] stands for this setting: JAK2 kinase inhibition, 0.2 μM ATP.
[4] abbreviates: ALK kinase inhibition, 1 μM ATP.

Where two headings read alike, the source gives them in different places.

T2 sequence (Q9UM73 19-1620): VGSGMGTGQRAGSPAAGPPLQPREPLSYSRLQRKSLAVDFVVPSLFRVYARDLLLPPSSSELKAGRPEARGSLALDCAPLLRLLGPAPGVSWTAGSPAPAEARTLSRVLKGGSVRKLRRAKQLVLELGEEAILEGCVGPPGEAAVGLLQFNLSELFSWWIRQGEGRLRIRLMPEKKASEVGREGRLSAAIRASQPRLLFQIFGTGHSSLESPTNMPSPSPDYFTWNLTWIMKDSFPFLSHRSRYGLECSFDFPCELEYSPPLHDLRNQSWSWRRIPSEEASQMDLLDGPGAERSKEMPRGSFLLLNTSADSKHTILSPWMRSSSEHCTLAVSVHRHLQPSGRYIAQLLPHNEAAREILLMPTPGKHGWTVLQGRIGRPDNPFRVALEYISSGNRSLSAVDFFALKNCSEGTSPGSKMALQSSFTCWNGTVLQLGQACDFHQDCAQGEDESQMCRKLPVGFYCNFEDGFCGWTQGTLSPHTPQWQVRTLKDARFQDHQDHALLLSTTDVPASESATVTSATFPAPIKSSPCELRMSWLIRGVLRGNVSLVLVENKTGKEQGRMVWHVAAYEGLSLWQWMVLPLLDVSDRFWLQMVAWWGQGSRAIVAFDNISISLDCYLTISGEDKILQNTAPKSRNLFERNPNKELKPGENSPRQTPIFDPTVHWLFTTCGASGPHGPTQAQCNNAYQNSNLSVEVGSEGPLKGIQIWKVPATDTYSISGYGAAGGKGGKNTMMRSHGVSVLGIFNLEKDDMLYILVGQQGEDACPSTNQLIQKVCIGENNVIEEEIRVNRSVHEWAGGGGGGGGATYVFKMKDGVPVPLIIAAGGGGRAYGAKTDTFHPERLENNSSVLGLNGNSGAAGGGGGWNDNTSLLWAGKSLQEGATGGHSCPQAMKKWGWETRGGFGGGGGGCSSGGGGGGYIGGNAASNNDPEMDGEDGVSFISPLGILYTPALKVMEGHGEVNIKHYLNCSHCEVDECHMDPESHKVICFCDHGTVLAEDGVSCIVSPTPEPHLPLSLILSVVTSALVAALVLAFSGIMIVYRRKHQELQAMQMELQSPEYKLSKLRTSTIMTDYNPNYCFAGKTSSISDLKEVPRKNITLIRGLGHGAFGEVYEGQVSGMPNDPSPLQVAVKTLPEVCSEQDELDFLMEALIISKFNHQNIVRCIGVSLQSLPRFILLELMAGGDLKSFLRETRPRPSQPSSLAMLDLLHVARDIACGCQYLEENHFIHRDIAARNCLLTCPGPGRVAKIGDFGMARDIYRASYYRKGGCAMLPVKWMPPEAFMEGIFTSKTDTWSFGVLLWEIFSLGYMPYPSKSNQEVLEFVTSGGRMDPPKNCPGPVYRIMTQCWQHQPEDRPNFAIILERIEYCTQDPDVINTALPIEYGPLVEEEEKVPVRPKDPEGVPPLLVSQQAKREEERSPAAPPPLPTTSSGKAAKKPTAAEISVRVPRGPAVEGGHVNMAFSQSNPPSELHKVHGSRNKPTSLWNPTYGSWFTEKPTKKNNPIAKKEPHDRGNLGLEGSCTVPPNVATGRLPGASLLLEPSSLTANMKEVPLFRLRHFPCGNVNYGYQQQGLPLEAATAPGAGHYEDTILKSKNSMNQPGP
T1 sequence (O60674 whole entry): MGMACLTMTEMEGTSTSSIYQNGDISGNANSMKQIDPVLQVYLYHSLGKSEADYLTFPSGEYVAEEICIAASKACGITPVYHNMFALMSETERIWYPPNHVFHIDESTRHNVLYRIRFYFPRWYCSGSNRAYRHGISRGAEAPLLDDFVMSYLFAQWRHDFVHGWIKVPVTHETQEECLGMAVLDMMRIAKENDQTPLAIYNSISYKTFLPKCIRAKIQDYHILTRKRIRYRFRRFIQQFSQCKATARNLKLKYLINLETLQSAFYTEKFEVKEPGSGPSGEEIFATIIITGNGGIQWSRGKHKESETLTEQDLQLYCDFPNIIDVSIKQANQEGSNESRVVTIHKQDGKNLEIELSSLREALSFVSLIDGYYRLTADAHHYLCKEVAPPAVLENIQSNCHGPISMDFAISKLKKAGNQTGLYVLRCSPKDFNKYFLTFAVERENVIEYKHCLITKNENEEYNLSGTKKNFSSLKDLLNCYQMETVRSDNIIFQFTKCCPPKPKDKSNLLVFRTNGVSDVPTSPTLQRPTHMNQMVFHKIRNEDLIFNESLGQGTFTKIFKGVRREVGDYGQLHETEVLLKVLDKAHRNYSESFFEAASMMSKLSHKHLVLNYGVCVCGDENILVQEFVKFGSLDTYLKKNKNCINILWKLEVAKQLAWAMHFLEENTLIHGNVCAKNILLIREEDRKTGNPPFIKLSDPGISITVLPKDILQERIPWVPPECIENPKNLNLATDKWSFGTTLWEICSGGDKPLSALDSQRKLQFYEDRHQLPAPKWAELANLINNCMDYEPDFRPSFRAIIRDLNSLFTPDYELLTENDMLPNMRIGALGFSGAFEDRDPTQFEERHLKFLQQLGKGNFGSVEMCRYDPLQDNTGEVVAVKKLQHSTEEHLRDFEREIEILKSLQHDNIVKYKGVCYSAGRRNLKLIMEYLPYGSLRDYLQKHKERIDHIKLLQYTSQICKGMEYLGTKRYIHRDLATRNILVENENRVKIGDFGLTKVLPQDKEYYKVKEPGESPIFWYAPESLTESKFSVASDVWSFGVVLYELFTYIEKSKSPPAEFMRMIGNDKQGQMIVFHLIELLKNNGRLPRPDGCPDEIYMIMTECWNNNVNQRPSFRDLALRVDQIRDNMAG

Take `COc1ccccc1-c1ccc2cnc(Nc3ccc(C(=O)N4CCN(C)CC4)cc3)nn12` [Example 318, {4-[7-(2-Methoxy-phenyl)-pyrrolo[2,1-f][1,2,4]triazin-2-ylamino]-phenyl}-(4-methyl-piperazin-1-yl)-methanone]: the results for the IC50 in assay [1] (JAK2 Kinase Inhibition) and in assay [2] (ALK Kinase Inhibition) were < 100 nM and 100 to 1000 nM, respectively.

Consider `Clc1cccc(-c2ccc3cnc(-n4cnc5cnccc54)nn23)c1` [Example 324, 1-[7-(3-Chloro-phenyl)-pyrrolo[2,1-f][1,2,4]triazin-2-yl]-1H-imidazo[4,5-c]pyridine], for which the IC50 in assay [1] (JAK2 Kinase Inhibition) and in assay [2] (ALK Kinase Inhibition) was 1000 to 10000 nM throughout.

Consider `COc1cc(N2CCCC(N3CCN(C(C)=O)CC3)C2)ccc1Nc1ncc2ccc(-c3ccccc3OC)n2n1` (stereo not shown) [Example 232, 1-[4-(1-{3-Methoxy-4-[7-(2-methoxy-phenyl)-pyrrolo[2,1-f][1,2,4]triazin-2-ylamino]-phenyl}-piperidin-3-yl)-piperazin-1-yl]-ethanone], for which the IC50 in assay [1] (JAK2 Kinase Inhibition) and in assay [2] (ALK Kinase Inhibition) was < 100 nM in each case.

Take `CN(c1ccccc1-c1ccc2cnc(Nc3ccc4nc(CN5CCOCC5)[nH]c4c3)nn12)S(C)(=O)=O` [Example 1517, N-Methyl-N-{2-[2-(2-morpholin-4-ylmethyl-3H-benzimidazol-5-ylamino)-pyrrolo[2,1-f][1,2,4]triazin-7-yl]-phenyl}-methanesulfonamide]: the IC50 in assay [1] (JAK2 Kinase Inhibition) is < 100 nM; in assay [2] (ALK Kinase Inhibition) it was 100 to 1000 nM.

`CC(C)(C)NS(=O)(=O)c1cccc(-c2ccc3cnc(Nc4ccc5cn[nH]c5c4)nn23)c1` [Example 1327, N-tert-Butyl-3-[2-(1H-indazol-6-ylamino)-pyrrolo[2,1-f][1,2,4]triazin-7-yl]-benzenesulfonamide]: the IC50 in assay [1] (setting [3]) was < 100 nM; in assay [2] (setting [4]) it was 1000 to 10000 nM.

As for `COc1cc(C2CCN(C(=O)OC(C)(C)C)CC2)ccc1Nc1ncc2ccc(-c3ccccc3N(C)S(C)(=O)=O)n2n1` [Example 818, 4-(4-{7-[2-(Methanesulfonyl-methyl-amino)-phenyl]-pyrrolo[2,1-f][1,2,4]triazin-2-ylamino}-3-methoxy-phenyl)-piperidine-1-carboxylic acid tert-butyl ester], the figures for the IC50 in assay [1] (setting [3]) and in assay [2] (setting [4]) were > 10000 nM and 100 to 1000 nM, respectively.

As for `CS(=O)(=O)Nc1ccccc1-c1ccc2cnc(Nc3cccc(OCCN4CCOCC4)c3)nn12` [Example 1002, N-(2-{2-[3-(2-Morpholin-4-yl-ethoxy)-phenylamino]-pyrrolo[2,1-f][1,2,4]triazin-7-yl}-phenyl)-methanesulfonamide], the values for the IC50 in assay [1] (setting [3]) and in assay [2] (setting [4]) were < 100 nM and 1000 to 10000 nM, respectively.

Consider `CCN(c1ccccc1-c1ccc2cnc(Nc3ccc(C4CCN(C[C@@H](C)O)CC4)cc3OC)nn12)S(C)(=O)=O` [Example 873, N-Ethyl-N-[2-(2-{4-[1-((R)-2-hydroxy-propyl)-piperidin-4-yl]-2-methoxy-phenylamino}-pyrrolo[2,1-f][1,2,4]triazin-7-yl)-phenyl]-methanesulfonamide], for which the IC50 in assay [1] (setting [3]) is 100 to 1000 nM; in assay [2] (setting [4]) it was < 100 nM.

With `COc1cc(N2CCC(N3CCOCC3)CC2)ccc1Nc1ncc2ccc(-c3ccccc3NS(C)(=O)=O)n2n1` [Example 1450, N-(2-{2-[2-Methoxy-4-(4-morpholin-4-yl-piperidin-1-yl)-phenylamino]-pyrrolo[2,1-f][1,2,4]triazin-7-yl}-phenyl)-methanesulfonamide], the IC50 in assay [1] (JAK2 Kinase Inhibition) and in assay [2] (ALK Kinase Inhibition) was 100 to 1000 nM throughout.

For `COc1ccc(Cl)cc1-c1ccc2cnc(Nc3cccc(N4CCC(N5CCOCC5)CC4)c3)nn12` [Example 196, [7-(5-Chloro-2-methoxy-phenyl)-pyrrolo[2,1-f][1,2,4]triazin-2-yl]-[3-(4-morpholin-4-yl-piperidin-1-yl)-phenyl]-amine], the IC50 in assay [1] (JAK2 Kinase Inhibition) and in assay [2] (ALK Kinase Inhibition) was < 100 nM each time.

As for `COc1cc(N2CCC(N3CCOCC3)CC2)ccc1Nc1ncc2ccc(-n3cccn3)n2n1` [Example 1272, [2-Methoxy-4-(4-morpholin-4-yl-piperidin-1-yl)-phenyl]-(7-pyrazol-1-yl-pyrrolo[2,1-f][1,2,4]triazin-2-yl)-amine], the IC50 in assay [1] (setting [3]) lay within 1000 to 10000 nM; in assay [2] (setting [4]) it was 100 to 1000 nM.
